In US10442803B2, “Tricyclic heterocycles as bet protein inhibitors” (Incyte Corporation, priority 2013, dated 2019) one finds IC50 data, which are given here for 25 compounds.

Counter-ions that a name gives are not always drawn. Bounds are passed on as bounds.

In this test the test system is KMS.12.BM cells. The test is described as follows: KMS.12.BM cell viability assay. It counts as cell-based. The settings on record: 72 h; KMS.12.BM human myeloma cells, 3 days, Cell Titer-GLO ATP quantitation; read-out: KMS cellular IC50. Put shortly: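 Human myeloma KMS.12.BM cells, 5000 per well in RPMI/10% FBS, exposed 3 days to compound concentration range. Viability from ATP-based Cell Titer-GLO luminescence; IC50 derived.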
For orientation: In ATP-based viability assays light output follows the ATP content of the culture.
The term IC50 denotes the concentration that inhibits the measured activity by half. As for `Cc1cc2c(cc(O)c3nnc(C)n32)n1Cc1ccccc1` [Example 204, 6-Benzyl-1,7-dimethyl-6H-pyrrolo[2,3-e][1,2,4]triazolo[4,3-a]pyridin-4-ol trifluoroacetate salt], the concentration for half-maximal inhibition (IC50) was in the range of 1000 to 10000 nM.

Regarding `Cc1cc2c(cc(Nc3nc4ccccc4[nH]3)c3nnc(C)n32)n1Cc1ccccc1` [Example 205, N-1H-Benzimidazol-2-yl-6-benzyl-1,7-dimethyl-6H-pyrrolo[2,3-e][1,2,4]triazolo[4,3-a]pyridin-4-amine trifluoroacetate salt], the IC50 is not above 1000 nM.

As to `Cc1cc2c(cc(NC3CCNCC3)c3nnc(C)n32)n1Cc1ccccc1` [Example 206, 6-Benzyl-1,7-dimethyl-N-piperidin-4-yl-6H-pyrrolo[2,3-e][1,2,4]triazolo[4,3-a]pyridin-4-amine], the IC50 is not above 1000 nM.

For the compound `Cc1cc2c(cc(NC3CCN(C)CC3)c3nnc(C)n32)n1Cc1ccccc1` [Example 207, 6-Benzyl-1,7-dimethyl-N-(1-methylpiperidin-4-yl)-6H-pyrrolo[2,3-e][1,2,4]triazolo[4,3-a]pyridin-4-amine], the IC50 was not above 1000 nM.

As to `Cc1cc2c(cc(NCCN3CCOCC3)c3nnc(C)n32)n1Cc1ccccc1` [Example 208, 6-Benzyl-1,7-dimethyl-N-(2-morpholin-4-ylethyl)-6H-pyrrolo[2,3-e][1,2,4]triazolo[4,3-a]pyridin-4-amine], the IC50 fell in the range of 1000 to 10000 nM.

`COCCNc1cc2c(cc(C)n2Cc2ccccc2)n2c(C)nnc12` [Example 209, 6-Benzyl-N-(2-methoxyethyl)-1,7-dimethyl-6H-pyrrolo[2,3-e][1,2,4]triazolo[4,3-a]pyridin-4-amine]: the IC50 fell in the range of 1000 to 10000 nM.

Regarding `Cc1cc2c(cc(NCCO)c3nnc(C)n32)n1Cc1ccccc1` [Example 210, 2-[(6-Benzyl-1,7-dimethyl-6H-pyrrolo[2,3-e][1,2,4]triazolo[4,3-a]pyridin-4-yl)amino]ethanol], the IC50 lay in the range of 1000 to 10000 nM.

As for `Cc1cc2c(cc(NC3CCN(S(C)(=O)=O)CC3)c3nnc(C)n32)n1Cc1ccccc1` [Example 211, 6-Benzyl-1,7-dimethyl-N-[1-(methylsulfonyl)piperidin-4-yl]-6H-pyrrolo[2,3-e][1,2,4]triazolo[4,3-a]pyridin-4-amine], the IC50 was not above 1000 nM.

Regarding `CCN1CCC(Nc2cc3c(cc(C)n3Cc3ccccc3)n3c(C)nnc23)CC1` [Example 212, 6-Benzyl-N-(1-ethylpiperidin-4-yl)-1,7-dimethyl-6H-pyrrolo[2,3-e][1,2,4]triazolo[4,3-a]pyridin-4-amine], the IC50 was not above 1000 nM.

Turning to `Cc1cc2c(cc(NC3CCN(C(C)C)CC3)c3nnc(C)n32)n1Cc1ccccc1` [Example 213, 6-Benzyl-N-(1-isopropylpiperidin-4-yl)-1,7-dimethyl-6H-pyrrolo[2,3-e][1,2,4]triazolo[4,3-a]pyridin-4-amine], the 50% inhibitory concentration (IC50) is not above 1000 nM.

As for `Cc1cc2c(cc(NC3CCN(C(=O)OC(C)(C)C)CC3)c3nnc(C)n32)n1Cc1ccccc1` [Example 214, tert-Butyl 4-[(6-benzyl-1,7-dimethyl-6H-pyrrolo[2,3-e][1,2,4]triazolo[4,3-a]pyridin-4-yl)amino]piperidine-1-carboxylate], the IC50 was 1000 to 10000 nM.

For the compound `CC(=O)N1CCC(Nc2cc3c(cc(C)n3Cc3ccccc3)n3c(C)nnc23)CC1` [Example 216, N-(1-Acetylpiperidin-4-yl)-6-benzyl-1,7-dimethyl-6H-pyrrolo[2,3-e][1,2,4]triazolo[4,3-a]pyridin-4-amine], the 50% inhibitory concentration (IC50) lay in the range of 1000 to 10000 nM.

For `Cc1cc2c(cc(N[C@H]3CC[C@H](N)CC3)c3nnc(C)n32)n1Cc1ccccc1` [Example 217, trans-N-(6-Benzyl-1,7-dimethyl-6H-pyrrolo[2,3-e][1,2,4]triazolo[4,3-a]pyridin-4-yl)cyclohexane-1,4-diamine], the concentration for half-maximal inhibition (IC50) is not above 1000 nM.

With `Cc1cc2c(cc(N[C@H]3CC[C@@H](N)CC3)c3nnc(C)n32)n1Cc1ccccc1` [Example 218, cis-N-(6-Benzyl-1,7-dimethyl-6H-pyrrolo[2,3-e][1,2,4]triazolo[4,3-a]pyridin-4-yl)cyclohexane-1,4-diamine], the IC50 is 1000 to 10000 nM.

For `CN[C@H]1CC[C@H](Nc2cc3c(cc(C)n3Cc3ccccc3)n3c(C)nnc23)CC1` [Example 219, trans-N-(6-Benzyl-1,7-dimethyl-6H-pyrrolo[2,3-e][1,2,4]triazolo[4,3-a]pyridin-4-yl)-N′-methylcyclohexane-1,4-diamine], the half-maximal inhibitory concentration (IC50) is not above 1000 nM.

As for `Cc1cc2c(cc(N[C@H]3CC[C@H](N(C)C)CC3)c3nnc(C)n32)n1Cc1ccccc1` [Example 220, trans-N′-(6-Benzyl-1,7-dimethyl-6H-pyrrolo[2,3-e][1,2,4]triazolo[4,3-a]pyridin-4-yl)-N,N-dimethylcyclohexane-1,4-diamine], the IC50 is 1000 to 10000 nM.

On to `CN[C@H]1CC[C@@H](Nc2cc3c(cc(C)n3Cc3ccccc3)n3c(C)nnc23)CC1` [Example 221, cis-N-(6-Benzyl-1,7-dimethyl-6H-pyrrolo[2,3-e][1,2,4]triazolo[4,3-a]pyridin-4-yl)-N′-methylcyclohexane-1,4-diamine], for which the IC50 lay in the range of 1000 to 10000 nM.

For `Cc1cc2c(cc(N[C@H]3CC[C@@H](N(C)C)CC3)c3nnc(C)n32)n1Cc1ccccc1` [Example 222, cis-N′-(6-Benzyl-1,7-dimethyl-6H-pyrrolo[2,3-e][1,2,4]triazolo[4,3-a]pyridin-4-yl)-N,N-dimethylcyclohexane-1,4-diamine], the IC50 was in the range of 1000 to 10000 nM.

Regarding `Cc1nnc2ccc3c(cc(C#N)n3Cc3ccccc3)n12` [Example 227, 6-Benzyl-1-methyl-6H-pyrrolo[2,3-e][1,2,4]triazolo[4,3-a]pyridine-7-carbonitrile trifluoroacetate salt], the IC50 is not above 1000 nM.

`Cc1cc2c(cc(NCC3CC3)c3nnc(C)n32)n1Cc1ccccc1` [Example 228, 6-Benzyl-N-(cyclopropylmethyl)-1,7-dimethyl-6H-pyrrolo[2,3-e][1,2,4]triazolo[4,3-a]pyridin-4-amine]: the IC50 was in the range of 1000 to 10000 nM.

For the compound `CNC(=O)Nc1cc2c(cc(C)n2Cc2ccccc2)n2c(C)nnc12` [Example 229, 1-(6-Benzyl-1,7-dimethyl-6H-pyrrolo[2,3-e][1,2,4]triazolo[4,3-a]pyridin-4-yl)-3-methylurea], the IC50 was not above 1000 nM.

With `Cc1cc2c(cc(NC(N)=O)c3nnc(C)n32)n1Cc1cccc(C(F)(F)F)c1` [Example 230, 1-(1,7-Dimethyl-6-(3-(trifluoromethyl)benzyl)-6H-pyrrolo[2,3-e][1,2,4]triazolo[4,3-a]pyridin-4-yl)urea], the 50% inhibitory concentration (IC50) was not above 1000 nM.

For `Cc1cc2c(cc(NC(N)=O)c3nnc(C)n32)n1Cc1cccc(Cl)c1` [Example 231, 1-(6-(3-Chlorobenzyl)-1,7-dimethyl-6H-pyrrolo[2,3-e][1,2,4]triazolo[4,3-a]pyridin-4-yl)urea], the IC50 is not above 1000 nM.

Turning to `Cc1cc2c(cc(NC(N)=O)c3nnc(C)n32)n1Cc1cc(F)cc(F)c1` [Example 233, 1-(6-(3,5-Difluorobenzyl)-1,7-dimethyl-6H-pyrrolo[2,3-e][1,2,4]triazolo[4,3-a]pyridin-4-yl)urea], the IC50 was not above 1000 nM.

In the case of `Cc1cc2c(cc(NC(N)=O)c3nnc(C)n32)n1Cc1ccc(F)c(F)c1` [Example 234, 1-(6-(3,4-Difluorobenzyl)-1,7-dimethyl-6H-pyrrolo[2,3-e][1,2,4]triazolo[4,3-a]pyridin-4-yl)urea], the IC50 is not above 1000 nM.
